Data set [1] in a line: Reversal of P-gp-mediated resistance to doxorubicin in human SW620/AD300 cells assessed as reduction in doxorubin IC50 at 10 uM after 72 hrs by SRB assay. The note with it: SW620/AD300, 72 h. The data set is classed as cell-based.
For data set [2], the system named is SW-620. As to the kind of experiment: cells. The note with it: Homo sapiens, SW-620, 72 h.
Description: Growth inhibition of human SW620 cells after 72 hrs by SRB assay
The next data set can be described thus: cells. The note with it: Homo sapiens, SW620/AD300, 72 h.
In data set [3] the test system is SW-620. As to the kind of experiment: Ratio of IC50 for human SW620/AD300 cells to IC50 for human SW620 cells. The data set is classed as functional.
The nature of data set [4]: Reversal of P-gp-mediated resistance to doxorubicin in human SW620/AD300 cells assessed as reduction in doxorubin IC50 at 400 nM after 72 hrs by SRB assay. Type of data set: cell-based. Particulars: SW620/AD300, 72 h. (The SRB assay estimates cell density from bound dye.)
The subject of data set [5] is SW-620. Put plainly: Reversal of P-gp-mediated resistance assessed as ratio of doxorubicin IC50 for human SW620/AD300 cells to doxorubicin IC50 for human SW620 cells in presence of compound at 400 nM. The data set is classed as cell-based.
Data set [6] can be described thus: Reversal of P-gp-mediated resistance to doxorubicin in human SW620 cells assessed as reduction in doxorubin IC50 at 400 nM after 72 hrs by SRB assay. Type of data set: cell-based. Particulars: SW-620, 72 h.
Data set [7] can be described thus: Reversal of P-gp-mediated resistance to cisplatin in human SW620/AD300 cells assessed as reduction in doxorubin IC50 at 10 uM after 72 hrs by SRB assay. The data set is classed as cell-based. The note with it: SW620/AD300, 72 h.
Data set [8] is described as follows: Reversal of P-gp-mediated resistance to cisplatin in human SW620/AD300 cells assessed as reduction in doxorubin IC50 at 2 uM after 72 hrs by SRB assay. The data set is classed as cell-based. Particulars: SW620/AD300, 72 h.
Data set [9] deals with T1, ATP-dependent translocase ABCB1 (Homo sapiens, UniProt P08183). As to the kind of experiment: Inhibition of P-gp in human SW620/AD300 cells assessed as reduction in rhodamine 123 efflux at 50 uM by flow cytometry. The note with it: sw620/ad300, 50 µM. Type of data set: cell-based. For orientation: In flow cytometry, cells or beads pass a laser one at a time.
Data set [10] can be described thus: Reversal of P-gp-mediated resistance to doxorubicin in human SW620 cells assessed as reduction in doxorubin IC50 at 2 uM after 72 hrs by SRB assay. Particulars: SW-620, 72 h. Type of data set: cell-based.
The test system of data set [11] is NCI-H292. Put plainly: Induction of apoptosis in human NCI-H292 cells at 10 uM after 24 hrs using annexin V by flow cytometry. Type of data set: functional, cell-based.
A short description of data set [12]: Reversal of P-gp-mediated resistance to cisplatin in human SW620 cells assessed as reduction in doxorubin IC50 at 2 uM after 72 hrs by SRB assay. The data set is classed as cell-based. The note with it: SW-620, 72 h.
In data set [13] the test system is NCI-H460. As to the kind of experiment: Induction of apoptosis in human NCI-H460 cells at 10 uM after 24 hrs using annexin V by flow cytometry. The data set is classed as functional, cell-based.
Data set [14] concerns NCI-H292. Put plainly: Induction of apoptosis in human NCI-H292 cells at 10 uM after 24 hrs using annexin V by flow cytometry in presence of 1 uM gefitinib. The data set is classed as functional, cell-based.
Data set [15] deals with NCI-H460. As to the kind of experiment: Induction of apoptosis in human NCI-H460 cells at 10 uM after 24 hrs using annexin V by flow cytometry in presence of 1 uM gefitinib. Type of data set: functional, cell-based.
The target of data set [16] is T1, ATP-dependent translocase ABCB1. As to the kind of experiment: Inhibition of P-gp in human SW620/AD300 cells assessed as reduction in rhodamine 123 efflux by flow cytometry. Type of data set: cell-based.
In data set [17] the test system is NCI-H460. Put plainly: Induction of apoptosis in human NCI-H460/Vbl cells at 10 uM after 24 hrs using annexin V by flow cytometry in presence of 1 uM gefitinib. Type of data set: functional, cell-based.
Data set [18] is described as follows: Reversal of P-gp-mediated resistance to doxorubicin in human SW620/AD300 cells assessed as reduction in doxorubin IC50 at 2 uM after 72 hrs by SRB assay. Type of data set: cell-based. The note with it: SW620/AD300, 72 h.
Data set [19] is described as follows: Reversal of P-gp-mediated resistance to cisplatin in human SW620 cells assessed as reduction in doxorubin IC50 at 10 uM after 72 hrs by SRB assay. Particulars: SW-620, 72 h. Type of data set: cell-based.
Data set [20] deals with NCI-H460. Put plainly: Induction of apoptosis in human NCI-H460/Vbl cells at 10 uM after 24 hrs using annexin V by flow cytometry. Type of data set: functional, cell-based.
Data set [21] can be described thus: Cytotoxicity against human H460 cells after 72 hrs by SRB assay. Particulars: NCI-H460, 72 h.
The nature of data set [22]: Cytotoxicity against human H460/Vbl cells after 72 hrs by SRB assay.
In data set [23] the test system is NCI-H292. As to the kind of experiment: Cytotoxicity against human NCI-H292 cells after 72 hrs by SRB assay. Type of data set: functional, cell-based. The note with it: NCI-H292, 72 h.

From ChEMBL document CHEMBL3351825, “Polyoxypregnane steroids from the stems of Marsdenia tenacissima” (J Nat Prod, 2014) come the findings set out here.

One may read the IC50 as the concentration at which inhibition is half-maximal.

Active and inactive are the calls of the source. No cut-off for these calls is given here.

T1 sequence (P08183 whole entry): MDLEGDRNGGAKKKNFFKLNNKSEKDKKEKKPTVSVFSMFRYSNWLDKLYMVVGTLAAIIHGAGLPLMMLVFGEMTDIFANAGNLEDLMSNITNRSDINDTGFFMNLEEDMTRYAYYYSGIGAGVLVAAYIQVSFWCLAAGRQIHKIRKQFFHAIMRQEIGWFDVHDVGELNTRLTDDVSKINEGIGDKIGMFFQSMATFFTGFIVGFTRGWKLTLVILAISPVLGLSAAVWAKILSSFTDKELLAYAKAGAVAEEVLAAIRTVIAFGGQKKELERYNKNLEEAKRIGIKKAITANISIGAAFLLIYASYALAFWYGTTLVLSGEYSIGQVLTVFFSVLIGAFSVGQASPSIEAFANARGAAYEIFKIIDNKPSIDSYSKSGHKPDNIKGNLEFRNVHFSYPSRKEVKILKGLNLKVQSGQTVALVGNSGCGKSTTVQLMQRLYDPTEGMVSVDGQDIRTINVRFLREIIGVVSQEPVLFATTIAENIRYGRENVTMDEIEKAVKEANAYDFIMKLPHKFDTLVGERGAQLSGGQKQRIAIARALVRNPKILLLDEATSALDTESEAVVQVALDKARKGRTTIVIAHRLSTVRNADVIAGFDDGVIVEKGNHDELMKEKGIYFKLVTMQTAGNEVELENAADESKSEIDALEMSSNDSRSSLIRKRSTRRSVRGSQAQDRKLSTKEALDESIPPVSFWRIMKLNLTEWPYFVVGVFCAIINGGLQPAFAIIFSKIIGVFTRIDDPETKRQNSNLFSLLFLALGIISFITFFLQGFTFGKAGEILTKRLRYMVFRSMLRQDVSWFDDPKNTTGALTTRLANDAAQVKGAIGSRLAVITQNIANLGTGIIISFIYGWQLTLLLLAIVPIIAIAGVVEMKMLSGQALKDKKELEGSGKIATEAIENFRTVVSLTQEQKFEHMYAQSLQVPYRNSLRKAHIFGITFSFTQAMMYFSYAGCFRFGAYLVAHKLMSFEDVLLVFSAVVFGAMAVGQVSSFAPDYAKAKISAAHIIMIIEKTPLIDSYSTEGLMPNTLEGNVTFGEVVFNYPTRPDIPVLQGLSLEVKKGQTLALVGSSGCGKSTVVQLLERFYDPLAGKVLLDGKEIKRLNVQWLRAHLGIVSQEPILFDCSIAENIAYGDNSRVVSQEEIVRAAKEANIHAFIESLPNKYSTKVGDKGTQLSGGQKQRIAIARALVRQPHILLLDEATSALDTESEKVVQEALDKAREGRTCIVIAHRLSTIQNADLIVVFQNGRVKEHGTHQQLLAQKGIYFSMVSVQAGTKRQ

Regarding `C/C=C(\C)C(=O)O[C@@H]1[C@@H](O)[C@]2(C)[C@@H](C(C)=O)CC[C@@]23O[C@]32CC[C@H]3C[C@@H](O[C@H]4C[C@@H](OC)[C@H](O[C@@H]5O[C@H](C)[C@@H](O[C@@H]6O[C@H](CO)[C@@H](O)[C@H](O)[C@H]6O)[C@@H](OC)[C@H]5O)[C@@H](C)O4)CC[C@]3(C)[C@@H]12`, the IC50 in data set [1] was determined as 23.9 µM.
In the case of `COc1cccc2c1C(=O)c1c(O)c3c(c(O)c1C2=O)C[C@@](O)(C(=O)CO)C[C@@H]3O[C@H]1C[C@H](N)[C@H](O)[C@H](C)O1` [DOXORUBICIN], the figures for the IC50 in the data set with SW-620 [2] and in the data set “cells” were 0.17 µM and 28.2 µM, respectively. For the same compound, the “Ratio IC50” value with SW-620 [3] turned out to be 166.
With `C/C=C(\C)C(=O)O[C@@H]1[C@@H](O)[C@]2(C)[C@@H](C(C)=O)CC[C@@]23O[C@]32CC[C@H]3C[C@@H](O[C@H]4C[C@@H](OC)[C@H](O[C@@H]5O[C@H](C)[C@@H](O)[C@@H](OC)[C@H]5O)[C@@H](C)O4)CC[C@]3(C)[C@@H]12`, the concentration for half-maximal inhibition (IC50) in data set [1] turned out to be 25.6 µM.
On to `CO[C@H]1[C@@H](O)[C@H](O[C@@H]2[C@@H](C)O[C@@H](O[C@H]3CC[C@@]4(C)[C@@H](CC[C@@]56O[C@@]57CC[C@H](C(C)=O)[C@@]7(C)[C@H](O)[C@@H](OC(C)=O)[C@H]46)C3)C[C@H]2OC)O[C@H](C)[C@H]1O`, for which, in [1], the IC50 worked out at 23.4 µM.
Turning to `CO[C@H]1[C@@H](O)[C@H](O[C@@H]2[C@@H](C)O[C@@H](O[C@H]3CC[C@@]4(C)[C@@H](CC[C@@]56O[C@@]57CC[C@H](C(C)=O)[C@@]7(C)[C@H](OC(C)=O)[C@@H](OC(=O)c5ccccc5)[C@H]46)C3)C[C@H]2OC)O[C@H](C)[C@H]1O[C@@H]1O[C@H](CO)[C@@H](O[C@@H]2O[C@H](CO)[C@@H](O)[C@H](O)[C@H]2O)[C@H](O)[C@H]1O`, the half-inhibitory concentration (IC50) in [1] was found to be 26.8 µM.
In the case of `C/C=C/C[C@@H](C)C(=O)[C@H]1C(=O)N[C@@H](C(C)C)C(=O)N(C)CC(=O)N(C)[C@@H](CC(C)C)C(=O)N[C@@H](C(C)C)C(=O)N(C)[C@@H](CC(C)C)C(=O)N[C@@H](C)C(=O)N[C@H](C)C(=O)N(C)[C@@H](CC(C)C)C(=O)N(C)[C@@H](CC(C)C)C(=O)N(C)[C@@H](C(C)C)C(=O)N1C` [VALSPODAR], the half-maximal inhibitory concentration (IC50) in data set [4] was 0.22 µM; in data set [6], 0.1 µM. The Ratio IC50 with SW-620 [5] was determined as 2.
As to `CCC(C)C(=O)O[C@@H]1[C@@H](OC(C)=O)[C@]2(C)[C@@H](C(C)=O)CC[C@@]23O[C@]32CC[C@H]3CC(=O)CC[C@]3(C)[C@@H]12` (stereo not given in full), the IC50 in data set [7] turned out to be 10.2 µM; in [8] it was 12 µM; in [10], 0.11 µM; in data set [12] it was 11.5 µM; in [18], 2.1 µM; in data set [1], 0.85 µM. In addition, in data set [19], the IC50 came to 9.4 µM. For the same compound, the “inhibition (INH)” value is “Active” in data set [9] and “Dose-dependent effect” in [16]. For the same compound, the result with NCI-H292 [11], in the data set with NCI-H460 [13] and with NCI-H460 [20] was inactive. The outcome in the data set with NCI-H292 [14], in the data set with NCI-H460 [15] and in the data set on NCI-H460 [17] was Active.
For `CO[C@H]1[C@@H](O)[C@H](O[C@@H]2[C@@H](C)O[C@@H](O[C@H]3CC[C@@]4(C)[C@@H](CC[C@@]56O[C@@]57CC[C@H](C(C)=O)[C@@]7(C)[C@H](O)[C@@H](O)[C@H]46)C3)C[C@H]2OC)O[C@H](C)[C@H]1O[C@@H]1O[C@H](CO)[C@@H](O)[C@H](O)[C@H]1O`, in data set [1], the IC50 came out at 24.8 µM.
In the case of `C#Cc1cccc(Nc2ncnc3cc(OCCOC)c(OCCOC)cc23)c1` [ERLOTINIB], the IC50 in data set [21] came out at 9.5 µM; in [22] it was 21.5 µM; with NCI-H292 [23], 1 µM.
In the case of `CO[C@H]1[C@@H](O)[C@H](O[C@@H]2[C@@H](C)O[C@@H](O[C@H]3CC[C@@]4(C)[C@@H](CC[C@@]56O[C@@]57CC[C@H](C(C)=O)[C@@]7(C)[C@H](O)[C@@H](OC(=O)c5ccccc5)[C@H]46)C3)C[C@H]2OC)O[C@H](C)[C@H]1O`, the IC50 in data set [1] was determined as 23.4 µM.
